Experimental data reported in US4920103A, “Modifications of mycinose and 3-O-demethylmycinose in tylosin-type macrolides” (Eli Lilly and Company, priority 1986, dated 1990).
Values after ≈ are worked out from the molar mass of the structure shown. Where two headings read alike, the source gives them in different places.

How the values were obtained:
[1] = tested on: Streptococcus pneumoniae Park I; assay: MIC, standard agar-dilution assay, S. pneumoniae Park I; format: cell-based; details: Streptococcus pneumoniae
Procedure: (§1) The MIC's in Table II were determined by standard agar-dilution assays. The MIC's in Table III were obtained using conventional broth-dilution microtiter tests.

Mycoplasma hyorhinis 29E = assay: MIC, broth-dilution microtiter test, M. hyorhinis 29E; format: cell-based; details: Mycoplasma, 29E; broth-dilution microtiter; read-out: MIC
Procedure: as §1

[2] = tested on: Pasteurella hemolytica 22C; assay: MIC, broth-dilution microtiter test, P. hemolytica 22C; format: cell-based
Procedure: as §1

[3] = tested on: Staphylococcus aureus X1.1; assay: MIC, standard agar-dilution assay, S. aureus X1.1; format: cell-based
Procedure: as §1

Streptococcus sp. 19F = assay: MIC, broth-dilution microtiter test, Streptococcus sp. 19F; format: cell-based; details: Streptococcus, SP.19F
Procedure: as §1

[4] = tested on: Pasteurella multocida 40G; assay: MIC, broth-dilution microtiter test, P. multocida 40G; format: cell-based
Procedure: as §1

[5] = tested on: Streptococcus Group D X66; assay: MIC, standard agar-dilution assay, Streptococcus Group D X66; format: cell-based
Procedure: as §1

[6] = tested on: Staphylococcus epidermidis 222; assay: MIC, standard agar-dilution assay, S. epidermidis 222; format: cell-based
Procedure: as §1

[7] = tested on: Staphylococcus aureus V41; assay: MIC, standard agar-dilution assay, S. aureus V41; format: cell-based; details: Staphylococcus aureus, V41
Procedure: as §1

[8] = tested on: Streptococcus Group D 2041; assay: MIC, standard agar-dilution assay, Streptococcus Group D 2041; format: cell-based; details: GROUPD2041
Procedure: as §1

[9] = tested on: Klebsiella pneumoniae X68; assay: MIC, standard agar-dilution assay, K. pneumoniae X68; format: cell-based
Procedure: as §1

Staphylococcus aureus = assay: MIC, broth-dilution microtiter test, S. aureus; format: cell-based
Procedure: as §1

[10] = tested on: Pasteurella multocida 17E; assay: MIC, broth-dilution microtiter test, P. multocida 17E; format: cell-based; details: Pasteurella multocida, 17E
Procedure: as §1

[11] = tested on: Mycoplasma gallisepticum 29C; assay: MIC, broth-dilution microtiter test, M. gallisepticum 29C; format: cell-based; details: Mycoplasmoides gallisepticum
Procedure: as §1

[12] = tested on: Haemophilus influenzae 76; assay: MIC, standard agar-dilution assay, H. influenzae 76; format: cell-based
Procedure: as §1

Escherichia coli EC14 = assay: MIC, standard agar-dilution assay, E. coli EC14; format: cell-based
Procedure: as §1

[13] = tested on: Pseudomonas aeruginosa X239; assay: MIC, standard agar-dilution assay, P. aeruginosa X239; format: cell-based
Procedure: as §1

[14] = tested on: Pasteurella multocida 22A; assay: MIC, broth-dilution microtiter test, P. multocida 22A; format: cell-based
Procedure: as §1

[15] = tested on: Pasteurella hemolytica 41D; assay: MIC, broth-dilution microtiter test, P. hemolytica 41D; format: cell-based
Procedure: as §1

[16] = tested on: Pasteurella multocida 60A; assay: MIC, broth-dilution microtiter test, P. multocida 60A; format: cell-based
Procedure: as §1

[17] = tested on: Bordetella bronchiseptica; assay: MIC, broth-dilution microtiter test, B. bronchiseptica; format: cell-based
Procedure: as §1

[18] = tested on: Streptococcus pyogenes C203; assay: MIC, standard agar-dilution assay, S. pyogenes C203; format: cell-based; details: Streptococcus pyogenes, C203
Procedure: as §1

[19] = tested on: Pasteurella multocida 68C; assay: MIC, broth-dilution microtiter test, P. multocida 68C; format: cell-based
Procedure: as §1

[20] = tested on: Staphylococcus aureus S13E; assay: MIC, standard agar-dilution assay, S. aureus S13E; format: cell-based
Procedure: as §1

[21] = tested on: Haemophilus influenzae C.L.; assay: MIC, standard agar-dilution assay, H. influenzae C.L.; format: cell-based
Procedure: as §1

[22] = tested on: Mycoplasma hyopneumoniae S5972; assay: MIC, broth-dilution microtiter test, M. hyopneumoniae S5972; format: cell-based; details: Mesomycoplasma hyopneumoniae, S5972; broth-dilution microtiter; read-out: MIC
Procedure: as §1

[23] = tested on: Pasteurella hemolytica 23C; assay: MIC, broth-dilution microtiter test, P. hemolytica 23C; format: cell-based
Procedure: as §1

[24] = tested on: Mycoplasma gallisepticum 36H; assay: MIC, broth-dilution microtiter test, M. gallisepticum 36H; format: cell-based; details: Mycoplasmoides gallisepticum
Procedure: as §1

[25] = tested on: Staphylococcus aureus X400; assay: MIC, standard agar-dilution assay, S. aureus X400; format: cell-based
Procedure: as §1

[26] = tested on: Staphylococcus epidermidis EPI1; assay: MIC, standard agar-dilution assay, S. epidermidis EPI1; format: cell-based
Procedure: as §1

Mycoplasma synoviae 40A = assay: MIC, broth-dilution microtiter test, M. synoviae 40A; format: cell-based; details: Mycoplasmopsis synoviae, 40A
Procedure: as §1

[27] = tested on: Mycoplasma gallisepticum 15E; assay: MIC, broth-dilution microtiter test, M. gallisepticum 15E; format: cell-based; details: Mycoplasmoides gallisepticum, broth-dilution microtiter, read-out: MIC
Procedure: as §1

[28] = tested on: Streptococcus pyogenes C203; assay: Protection of mice experimentally infected with Streptococcus pyogenes C203; format: in vivo; details: Streptococcus pyogenes, doses given 1 and 4 hours postinfection, read-out: ED50
Procedure: The formula 1 compounds have shown in vivo antimicrobial activity against experimentally-induced infections in laboratory animals. When two doses of test compound were administered to mice experimentally infected with Streptococcus pyogenes C203, the activity observed was measured as an ED50 value [effective dose in mg/kg to protect 50% of the test animals: see Warren Wick, et al., J. Bacteriol. 81, 233-235 (1961)].
^a mg/kg × 2; doses given 1 and 4 hours postinfection

[29] = broth-dilution microtiter, read-out: MIC

Question: Which results are given for CCC1OC(=O)CC(O)C(C)C(OC2OC(C)C(OC(C)=O)C(N(C)C)C2OC(C)=O)C(CCOc2ccccc2)CC(C)C(=O)C=CC(C)=CC1COC1OC(C)CC(OC)C1OC (stereo not drawn) [Compound 10, 2',4'-Di-O-acetyl-4"-deoxy-20-DH-20-O-phenyl-desmycosin]?
Answer: MIC [1]: 0.5 µg/mL (≈ 0.545 µM); MIC (Mycoplasma hyorhinis 29E): 25 µg/mL (≈ 27.2 µM); MIC [2]: > 50 µg/mL; MIC [3]: 0.25 µg/mL (≈ 0.272 µM); MIC (Streptococcus sp. 19F; [29]): 6.25 µg/mL (≈ 6.81 µM); MIC [4]: > 50 µg/mL; MIC [5]: 2 µg/mL (≈ 2.18 µM); MIC [6]: 0.25 µg/mL (≈ 0.272 µM); MIC [7]: 0.5 µg/mL (≈ 0.545 µM); MIC [8]: 4 µg/mL (≈ 4.36 µM); MIC [9]: > 128 µg/mL; MIC (Staphylococcus aureus): 0.78 µg/mL (≈ 0.85 µM); MIC [10]: 50 µg/mL (≈ 54.5 µM); MIC [11, 29]: < 0.048 µg/mL; MIC [12]: 64 µg/mL (≈ 69.7 µM); MIC (Escherichia coli EC14): > 128 µg/mL; MIC [13]: > 128 µg/mL; MIC [14]: > 50 µg/mL; MIC [15]: 50 µg/mL (≈ 54.5 µM); MIC [16]: > 50 µg/mL; MIC [17]: > 50 µg/mL; MIC [18]: 0.5 µg/mL (≈ 0.545 µM); MIC [19]: 50 µg/mL (≈ 54.5 µM); MIC [20]: 0.5 µg/mL (≈ 0.545 µM); MIC [21]: 64 µg/mL (≈ 69.7 µM); MIC [22]: 6.25 µg/mL (≈ 6.81 µM); MIC [23]: 50 µg/mL (≈ 54.5 µM); MIC [24, 29]: 25 µg/mL (≈ 27.2 µM); MIC [25]: 0.5 µg/mL (≈ 0.545 µM); MIC [26]: 0.25 µg/mL (≈ 0.272 µM); MIC (Mycoplasma synoviae 40A): 3.12 µg/mL (≈ 3.4 µM)

Question: CCC1OC(=O)CC(O)C(C)C(OC2OC(C)C(O)C(N(C)C)C2O)C(CCOc2ccccc2)CC(C)C(=O)C=CC(C)=CC1COC1OC(C)C(=NO)C(OC)C1OC (stereo not drawn) [Compound 4, 4"-O-Hydroxyimino-20-DH-20-O-phenyl-desmycosin] was tested. Which MIC [1] did it give?
Answer: 2 µg/mL (≈ 2.32 µM)

Question: What about the MIC [2, 29] of the same compound?
Answer: > 50 µg/mL

Question: And the MIC [3]?
Answer: 0.5 µg/mL (≈ 0.579 µM)

Question: What about the MIC (Streptococcus sp. 19F) of the same compound?
Answer: 0.78 µg/mL (≈ 0.904 µM)

Question: What about the MIC [27] of the same compound?
Answer: 25 µg/mL (≈ 29 µM)

Question: What about the MIC [4] of the same compound?
Answer: 50 µg/mL (≈ 57.9 µM)

Question: What about the MIC [5] of the same compound?
Answer: 2 µg/mL (≈ 2.32 µM)

Question: And the MIC [6]?
Answer: 0.5 µg/mL (≈ 0.579 µM)

Question: And the MIC [7]?
Answer: 1 µg/mL (≈ 1.16 µM)

Question: And the MIC [8]?
Answer: 4 µg/mL (≈ 4.63 µM)

Question: What about the MIC ([9]; agar-dilution, read-out: MIC) of the same compound?
Answer: > 128 µg/mL

Question: And the MIC (Staphylococcus aureus)?
Answer: 1.56 µg/mL (≈ 1.81 µM)

Question: What about the MIC [10] of the same compound?
Answer: 50 µg/mL (≈ 57.9 µM)

Question: What about the MIC [11] of the same compound?
Answer: 1.56 µg/mL (≈ 1.81 µM)

Question: And the MIC ([12]; agar-dilution, ampicillin-resistant strain, read-out: MIC)?
Answer: > 128 µg/mL

Question: And the MIC (Escherichia coli EC14; agar-dilution, read-out: MIC)?
Answer: > 128 µg/mL

Question: What about the MIC ([13]; agar-dilution, read-out: MIC) of the same compound?
Answer: > 128 µg/mL

Question: And the MIC [14, 29]?
Answer: > 50 µg/mL

Question: What about the MIC [15, 29] of the same compound?
Answer: > 50 µg/mL

Question: And the MIC ([16]; broth-dilution microtiter, avian isolate, read-out: MIC)?
Answer: > 50 µg/mL

Question: What about the MIC [17, 29] of the same compound?
Answer: > 50 µg/mL

Question: What about the MIC [18] of the same compound?
Answer: 2 µg/mL (≈ 2.32 µM)

Question: And the MIC [19]?
Answer: 50 µg/mL (≈ 57.9 µM)

Question: What about the ED50 ([28]; C203, oral) of the same compound?
Answer: 39.6 mg/kg

Question: What about the ED50 ([28]; C203, sc, subcutaneous) of the same compound?
Answer: > 10 mg/kg

Question: And the MIC [20]?
Answer: 1 µg/mL (≈ 1.16 µM)

Question: What about the MIC ([21]; agar-dilution, ampicillin-sensitive strain, read-out: MIC) of the same compound?
Answer: > 128 µg/mL

Question: What about the MIC [22] of the same compound?
Answer: > 50 µg/mL

Question: What about the MIC [23, 29] of the same compound?
Answer: > 50 µg/mL

Question: What about the MIC [24] of the same compound?
Answer: 50 µg/mL (≈ 57.9 µM)

Question: What about the MIC [25] of the same compound?
Answer: 1 µg/mL (≈ 1.16 µM)

Question: What about the MIC [26] of the same compound?
Answer: 1 µg/mL (≈ 1.16 µM)
